In patent US10995358B2, “Rapid antibiotic susceptibility test using membrane fluorescence staining and spectral intensity ratio improved by flow cytometry dead to live population ratio” (POCARED Diagnostics LTD., priority 2017, dated 2021):

Assays:
Format in all cases: cell-based
[1] = test system: E. coli; test: Micro dilution susceptibility test performed in parallel; conditions: after 12 hours of incubation
[2] = test system: E. coli; test: Rapid AST/MIC from clinical isolates by FM 1-43 staining, flow cytometry and SIR; conditions: clinical isolate, 2-4 hours antibiotic treatment
Protocol: (§1) Our method includes bacterial antimicrobial treatment for 2 to 4 hours, bacteria staining with a single fluorescence dye followed by a flow cytometric measurement, and mathematical analysis. The following paragraphs describe the method in details.
(§2) A total of 90 isolates-antibiotics combinations were tested. • a) All strains were cultured onto 5% sheep blood agar (Hylabs, Israel), following overnight incubation, colonies were harvested and suspended in Phosphate Buffer Saline (PBS, Sigma-Aldrich). […] The rest of the sample was further incubated for 16-20 hours and then was visually evaluated for growth.
(§3) In order to quantify the influence of a certain antimicrobial treatment, we define the spectral intensity ratio (SIR) as follows: […]
(§4) The MIC is calculated by plotting the spectral intensity ratio (SIR) as a function of the antimicrobial concentration and approximating it to a step function in the form of
(§5) Where a, b, and c are parameters and erf is the error function. The parameters are used to approximate the measured SIR to a step function; a is a scaling parameter, b determines the step slope, and c is the MIC value. […]

[3] = test system: 31 positive blood cultures (E. coli, K. pneumonia, A. baummanii, P. mirabilis, E. cloacae, Aeromonass spp., K. oxytoca); test: Macro dilution reference method, positive blood cultures (visual growth after 16-20 hours); conditions: 31 strains from positive blood cultures
Protocol: 31 positive blood cultures were obtained from Sheba Medical Center (Ramat-Gan, Israel) and tested for antimicrobial susceptibility with gentamicin and ampicillin antibiotics (Sigma-Aldrich, USA). A total of 62 positive blood samples-antibiotics combinations were tested. • a) Positive blood samples were received from Sheba Medical Center, 2 ml of each sample were centrifuged for 15 min at 24×g and Supernatants were diluted 1:1000 with Cation-Adjusted Mueller Hinton Broth (CAMHB). • b) Antimicrobial stock solutions were prepared according to CLSI recommendations, and were diluted in CAMHB, to a concentration which was 2 fold higher from the highest concentration recommended for each antimicrobial combination (“Class II Special Controls Guidance Document: Antimicrobial Susceptibility Test (AST) Systems”, Aug. 28, 2009, FDA). • c) For each sample/antimicrobial combination, a set of tubes was prepared for which 1 ml of CAMHB medium was added, except for the first tube. • d) To each first tube of the set, 2 ml from the antimicrobial stock solution (b) was dispensed. • e) From the first tube a serial dilutions of 2 folds were prepared by transferring 1 ml of the solution to the next tube until the lowest required concentration by CLSI. 1 ml was discarded from the last tube in each set of tubes. • f) To each tube in the set, 1 ml of bacterial sample solution (a) was added. • g) For each serial dilutions set, two controls were added. As a negative control, a tube with 2 ml of CAMHB. As a positive control, a tube with bacterial sample solution (a) without antimicrobial agent. • h) All tubes were incubated at 37° C. • i) 2-4 hours from incubation initiation, 200 μl from each tube were transferred into a fresh tube, dyed with 2 μl of Synaptogreen or FM 1-43 (Sigma-Aldrich; Molecular Probes, respectively) and measured by a flow cytometer. The rest of the sample was further incubated for 16-20 hours and then was visually evaluated for growth.
62 samples (31 positive blood cultures and 2 antibiotics combination) were analyzed in triplicates. Each sample was measured by the flow cytometer and the MIC was calculated using the spectral intensity ratio (SIR) calculation and step function estimation. The bacteria identified within the samples were; E. coli (15 samples), K. pneumonia (6 samples), A. baummanii (4 samples), P. mirabilis (2 samples), E. cloacae (2 samples), Aeromonass spp. (1 sample), and K. oxytoca (1 sample).
Tables 1 and 2 present the results of the positive blood sample experiment using the macro dilution as the reference method. […] There are no errors as defined by “Class II Special Controls Guidance Document: Antimicrobial Susceptibility Test (AST) Systems,” Aug. 28, 2009, FDA.

[4] = test system: 30 clinical isolates of E. coli, K. pneumoniae, E. cloacae, P. mirabilis, and C. freundii; test: Macro dilution reference method, clinical isolates (visual growth after 16-20 hours)
Protocol: A total of 90 isolates-antibiotics combinations were tested. • a) All strains were cultured onto 5% sheep blood agar (Hylabs, Israel), following overnight incubation, colonies were harvested and suspended in Phosphate Buffer Saline (PBS, Sigma-Aldrich). […] 1 ml was discarded from the last tube in each set of tubes. • g) For each serial dilutions set, two controls were added. As a negative control, a tube with 2 ml of CAMHB. […] The rest of the sample was further incubated for 16-20 hours and then was visually evaluated for growth.

[5] = test system: K. pneumonia; test: Rapid AST/MIC from positive blood culture by FM 1-43 staining, flow cytometry and spectral intensity ratio (SIR); conditions: 2-4 hours antibiotic exposure
Protocol: (§6) In general, the method includes; blood culture centrifugation, bacterial antimicrobial exposure for 2 to 4 hours, bacteria staining with a single fluorescence dye followed by a flow cytometric measurement, and mathematical analysis.
(§7) 31 positive blood cultures were obtained from Sheba Medical Center (Ramat-Gan, Israel) and tested for antimicrobial susceptibility with gentamicin and ampicillin antibiotics (Sigma-Aldrich, USA). […] As a positive control, a tube with bacterial sample solution (a) without antimicrobial agent. • h) All tubes were incubated at 37° C. • i) 2-4 hours from incubation initiation, 200 μl from each tube were transferred into a fresh tube, dyed with 2 μl of Synaptogreen or FM 1-43 (Sigma-Aldrich; Molecular Probes, respectively) and measured by a flow cytometer. The rest of the sample was further incubated for 16-20 hours and then was visually evaluated for growth.
(§8) In order to quantify the influence of a certain antimicrobial exposure we define the spectral intensity ratio (SIR) as follows: […]
(§9) The MIC is calculated by plotting the spectral intensity ratio (SIR) as a function of the antimicrobial concentration and approximating it to a step function in the form of […]

[6] = test system: E. coli; test: Flow cytometry SIR/SDL dead/live analysis of FM1-43 stained bacteria under Gentamycin exposure; set-up: key to SIR: SIR = ratio of mean FL-3 (610 nm) to FL-1 (530 nm) fluorescence; conditions: for Dead % of This Plot / Live % of This Plot / SDL SIR * D/L / SIR: 120 minutes
Protocol: In this Example, E. coli bacteria samples were incubated with Gentamycin in series dilution from 0 to 32 μgr/ml for 120 minutes. Post incubation the samples were stained with the dye FM1-43 and immediately measured by flow cytometry analysis on light scatter analysis for gating the bacteria and with fluorescence filters: λ1=530/30 and λ2=616/16 nm to analyze the SIR. Moreover gating of the Dead and live bacteria were determined.
From such instant flow-cytometry analysis the SIR and SDL values are evaluated. While performing the same analysis over the whole antibiotic concentrations dilution series the SIR and SDL values were extracted to the concentration series, the data is summarized in Table 5. In Table 5, mean FL1-H and FL3-H is the average of the individual points in the bacteria gated population, i.e. of all measured bacteria. In other words, Fl-1 and FL-3 are merely the fluorescence intensity of each event (bacteria) per a certain fluorescence filter. By referring to FL-1 or FL-3 this means that the mean (average) values of all the events is calculated in the dot plot. FL-1 it is at 530 (±15) nm and FL-3 is at 610 (±10) nm. SIR, is the ratio of FL-3/FL-1. […] So, in order to obtain SIR all that is needed are the FL-3 and FL-1 mean values of the bacterial population in the dot plot. […] By using a predetermined gates, the number of dead and live bacteria can be counted, and then the ratio of dead to live can be calculated and multiplied by the SIR to obtain SDL. The gates are combination of FL-1 and FL-3 and predetermined by control live sample. Plotting SIR, SDL, and DL versus antibiotic concentration is represented in FIG. 15 as (labeled as “SIR”, “SDL”, and “DL”). In FIG. 15, SIR, SDL, and DL are all normalized to the maximum value in the series (column)/dataset and then to 100.
From the data, we can determine the MIC by approximating the MIC as a function of antimicrobial concentration to an error function (FIG. 16) of the following type;
The MIC is the value of the parameter c or a function of it. Specifically, the MIC gets the value of “c”. The value of “c” is the middle of the step in a regular step function of where the step function equals to zero when its values are normalized between −1 to 1.

[7] = test system: C. freundii; test: Rapid AST from clinical isolates by FM 1-43 staining, flow cytometry and SIR; conditions: clinical isolate, up to 32 μg/ml
Protocol: as §1, §2, §3, §4, §5

[8] = test system: E. coli; test: Rapid AST from positive blood culture by FM 1-43 staining, flow cytometry and SIR; conditions: positive blood culture strain, 2-4 hours antibiotic exposure
Protocol: as §6, §7, §8, §9

[9] = 120 minutes incubation, FIG. 17A
[10] = 120 minutes incubation, FIG. 17B
[11] = Gentamycin 1 microg/ml (sub-MIC), listed as Gentamycin
[12] = Gentamycin 1 microg/ml (sub-MIC), listed as gentamycin
[13] = Gentamycin 8 microg/ml (over-MIC), listed as Gentamycin
[14] = Gentamycin 8 microg/ml (over-MIC), listed as gentamycin

## gentamicin
[1]
  MIC, micro dilution susceptibility test: 8 μgr/ml
[2]
  MIC (SIR approximated to a step function): 2 µg/mL
[3]
  Reference Method Susceptibilities I (number of strains): 0
  Reference Method Susceptibilities R (number of strains): 10
  Reference Method Susceptibilities S (number of strains): 21
[4]
  Reference Method Susceptibilities I (number of strains): 4
  Reference Method Susceptibilities R (number of strains): 5
  Reference Method Susceptibilities S (number of strains): 21
[5]
  MIC (SIR approximated to a step function): 1 µg/mL
[6]; [9]
  MIC from SIR error function fit (c rounded up to power of 2): 8 μgr/ml
  value of c, error function fit of measured SIR: 4.63 μgr/ml
[6]; [10]
  MIC from SDL error function fit (c rounded up to power of 2): 8 μgr/ml
  value of c, error function fit of measured SDL: 5.38 μgr/ml
[6]; Gentamycin 0.25 microg/ml
  Dead % of This Plot: 2.07%
  Live % of This Plot: 97.89%
  SDL SIR * D/L: 0.026
  SIR: 1.223
[6]; Gentamycin 0.5 microg/ml
  Dead % of This Plot: 2.34%
  Live % of This Plot: 97.65%
  SDL SIR * D/L: 0.030
  SIR: 1.238
[6]; [11]
  Dead % of This Plot: 4.64%
  Live % of This Plot: 95.29%
[6]; [12]
  Dead % of This Plot: 4.6%
  Live % of This Plot: 95.2%
[6]; Gentamycin 1 microg/ml
  SDL SIR * D/L: 0.070
  SIR: 1.437
[6]; Gentamycin 2 microg/ml
  Dead % of This Plot: 6.46%
  Live % of This Plot: 93.52%
  SDL SIR * D/L: 0.099
  SIR: 1.426
[6]; Gentamycin 4 microg/ml
  Dead % of This Plot: 9.86%
  Live % of This Plot: 90.09%
  SDL SIR * D/L: 0.188
  SIR: 1.718
[6]; [13]
  Dead % of This Plot: 18.68%
  Live % of This Plot: 81.28%
[6]; [14]
  Dead % of This Plot: 18%
  Live % of This Plot: 81%
[6]; Gentamycin 8 microg/ml
  SDL SIR * D/L: 0.492
  SIR: 2.141
[6]; Gentamycin 16 microg/ml
  Dead % of This Plot: 27.28%
  Live % of This Plot: 72.67%
  SDL SIR * D/L: 0.893
  SIR: 2.379
[6]; Gentamycin 32 microg/ml
  Dead % of This Plot: 21.03%
  Live % of This Plot: 78.95%
  SDL SIR * D/L: 0.622
  SIR: 2.336
[7]
  susceptibility by SIR method: resistant

## CC1(C)S[C@@H]2[C@H](NC(=O)[C@H](N)c3ccccc3)C(=O)N2[C@H]1C(=O)O [Ampicillin, ampicillin]
[8]
  susceptibility by SIR method: resistant
[3]
  Reference Method Susceptibilities I (number of strains): 0
  Reference Method Susceptibilities R (number of strains): 26
  Reference Method Susceptibilities S (number of strains): 5
[4]
  Reference Method Susceptibilities I (number of strains): 5
  Reference Method Susceptibilities R (number of strains): 9
  Reference Method Susceptibilities S (number of strains): 16
[5]; Klebsiella pneumoniae, read-out: MIC (SIR approximated to a step function)
  MIC: 4 µg/mL
